In patent publication US20160008493A1, “RADIOACTIVE SUBSTRATES FOR ALDEHYDE DEHYDROGENASE” (THE JOHNS HOPKINS UNIVERSITY, priority 2013, published 2016):

How the values were obtained:
[1] = system: ALDH; experiment: In vitro radio uptake assay for ALDH activity, K562 cells; type: cell-based, human; conditions: 1 μCi, 37° C., 30 mins, radioactivity (CPM) by gamma counter, FIG. 1
Text: (§1) The K562 human chronic myelogenous leukemia cell line was purchased from American Type Culture Collection (CLL-243™) and maintained in suspension in IMDM media supplemented with 10% FBS. The murine leukemia cell line L1210 (ALDH^low) and L1210/cpa (ALDH^hi) were provided by Dr. Richard J. Jones (Johns Hopkins University) and maintained in suspension in RPMI 1640 supplemented with 10% FBS. Human glioma cell line, U87-tri was provided by Dr. John Laterra (Kennedy Krieger Institute) and maintained in DMEM media supplemented with 10% FBS. All cells were grown at 37° C. in a humidified incubator with 5% CO2.
(§2) ^125IBz-A-DA was dissolved in 100% DMSO at 10 mCi/50 μL concentration and stored at −20° C. as stock solutions. 25 μL of a stock was deprotected by mixing with the same volume of 2N HCl for 30 mins at room temperature and the resulting aldehyde (IBz-A) were neutralized by adding 350 μL of the assay buffer (PBS supplemented with 1% FBS and 50 μM Verapamil, Sigma V4629) and immediately used.
(§3) One million cells were resuspended in the assay buffer and 1 μCi of IBz-A (with or without 1000 fold cold competitor) was added to the cell. […] Cells were resuspended in the cold assay buffer ([…]) and stored in the ice until analyzed. Cells were washed twice with cold assay buffer and the radioactivity was measured by LKB Wallac gamma counter (1282 compugamma CS).

[2] = biological target: T1, ALDH (Mus musculus, UniProt P24549); experiment: In vitro radio uptake assay for ALDH activity, L1210/cpa cells; type: cell-based, murine; conditions: L1210/cpa (ALDH^hi) cells; 1 μCi, 37° C., 30 mins; radioactivity (CPM) by gamma counter; FIG. 1
T1 construct: was tested for specific uptake by ALDH-expressing cell lines (K562 and L1210/cpa); endogenous in cells; host or cells: L1210/cpa
T1 sequence (P24549 1-501): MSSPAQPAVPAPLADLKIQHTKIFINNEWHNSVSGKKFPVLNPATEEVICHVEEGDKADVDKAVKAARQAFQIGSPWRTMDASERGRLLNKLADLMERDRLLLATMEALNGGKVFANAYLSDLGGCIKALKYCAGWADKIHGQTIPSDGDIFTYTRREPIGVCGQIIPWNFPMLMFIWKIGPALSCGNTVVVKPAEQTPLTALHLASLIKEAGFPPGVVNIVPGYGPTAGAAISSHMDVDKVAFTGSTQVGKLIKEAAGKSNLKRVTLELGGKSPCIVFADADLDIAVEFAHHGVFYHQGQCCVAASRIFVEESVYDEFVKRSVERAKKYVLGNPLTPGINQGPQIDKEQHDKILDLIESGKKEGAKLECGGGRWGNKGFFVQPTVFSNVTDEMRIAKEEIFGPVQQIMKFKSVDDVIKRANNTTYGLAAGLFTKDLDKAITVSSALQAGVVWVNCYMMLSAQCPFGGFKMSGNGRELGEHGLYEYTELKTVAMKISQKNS
Text: as §1, §2, §3

Q: O=CCNC(=O)c1ccc([125I])cc1 [^125IBz-A] was tested. Which “increase of uptake compared with cells treated with DEAB (ALDH inhibitor)” value [1] did it give?
A: more than 5 fold

Q: What about the “increase of uptake compared with cells treated with DEAB (ALDH inhibitor)” value [2] of the same molecule?
A: more than 5 fold
